Results published in PMC11420776 (RSC Advances, 2024).

What was measured:
[1] = test system: COLO-205 (colon cancer); assay: NCI 60-cell one-dose antiproliferative screen; format: cell-based, human; conditions: one dose 10 μM
[2] = test system: NCI-H322M (NSC lung cancer); assay: NCI 60-cell one-dose antiproliferative screen; format: cell-based, human; conditions: one dose 10 μM
[3] = test system: NCI-H23 (NSC lung cancer); assay: NCI 60-cell one-dose antiproliferative screen; format: cell-based, human; conditions: one dose 10 μM
[4] = test system: UACC-257 (melanoma); assay: NCI 60-cell one-dose antiproliferative screen; format: cell-based, human; conditions: one dose 10 μM
[5] = test system: SK-OV-3 (ovarian cancer); assay: NCI 60-cell one-dose antiproliferative screen; format: cell-based, human; conditions: one dose 10 μM
[6] = test system: RXF 393 (renal cancer); assay: NCI 60-cell one-dose antiproliferative screen; format: cell-based, human; conditions: one dose 10 μM
[7] = test system: HCT-15 (colon cancer); assay: NCI 60-cell one-dose antiproliferative screen; format: cell-based, human; conditions: one dose 10 μM
[8] = test system: HOP-92 (NSC lung cancer); assay: NCI 60-cell one-dose antiproliferative screen; format: cell-based, human; conditions: one dose 10 μM
[9] = test system: KM12 (colon cancer); assay: NCI 60-cell one-dose antiproliferative screen; format: cell-based, human; conditions: one dose 10 μM
[10] = test system: SK-MEL-2 (melanoma); assay: NCI 60-cell one-dose antiproliferative screen; format: cell-based, human; conditions: one dose 10 μM
[11] = test system: NCI-H522 (NSC lung cancer); assay: NCI 60-cell one-dose antiproliferative screen; format: cell-based, human; conditions: one dose 10 μM
[12] = test system: SF-268 (CNS cancer); assay: NCI 60-cell one-dose antiproliferative screen; format: cell-based, human; conditions: one dose 10 μM
[13] = test system: A498 (renal cancer); assay: NCI 60-cell one-dose antiproliferative screen; format: cell-based, human; conditions: one dose 10 μM
[14] = test system: OVCAR-5 (ovarian cancer); assay: NCI 60-cell one-dose antiproliferative screen; format: cell-based, human; conditions: one dose 10 μM
[15] = test system: CAKI-1 (renal cancer); assay: NCI 60-cell one-dose antiproliferative screen; format: cell-based, human; conditions: one dose 10 μM
[16] = test system: 60 human tumor cell lines; assay: NCI 60-cell one-dose antiproliferative screen, whole panel; format: cell-based; conditions: Homo sapiens, 60 cell, read-out: Mean inhibition (mean GI%)
[17] = test system: U251 (CNS cancer); assay: NCI 60-cell one-dose antiproliferative screen; format: cell-based, human; conditions: one dose 10 μM
[18] = test system: SF-539 (CNS cancer); assay: NCI 60-cell one-dose antiproliferative screen; format: cell-based, human; conditions: one dose 10 μM
[19] = test system: MDA-MB-231/ATCC (breast cancer); assay: NCI 60-cell one-dose antiproliferative screen; format: cell-based, human; conditions: one dose 10 μM
[20] = test system: 786-0 (renal cancer); assay: NCI 60-cell one-dose antiproliferative screen; format: cell-based, human; conditions: one dose 10 μM
[21] = test system: EKVX (NSC lung cancer); assay: NCI 60-cell one-dose antiproliferative screen; format: cell-based, human; conditions: one dose 10 μM
[22] = test system: A549/ATCC (NSC lung cancer); assay: NCI 60-cell one-dose antiproliferative screen; format: cell-based, human; conditions: one dose 10 μM
[23] = test system: SW-620 (colon cancer); assay: NCI 60-cell one-dose antiproliferative screen; format: cell-based, human; conditions: one dose 10 μM
[24] = test system: UO-31 (renal cancer); assay: NCI 60-cell one-dose antiproliferative screen; format: cell-based, human; conditions: one dose 10 μM
[25] = test system: MCF7 (breast cancer); assay: NCI 60-cell one-dose antiproliferative screen; format: cell-based, human; conditions: one dose 10 μM
[26] = test system: ACHN (renal cancer); assay: NCI 60-cell one-dose antiproliferative screen; format: cell-based, human; conditions: one dose 10 μM
[27] = test system: IGROV1 (ovarian cancer); assay: NCI 60-cell one-dose antiproliferative screen; format: cell-based, human; conditions: one dose 10 μM
[28] = test system: HCT-116 (colon cancer); assay: NCI 60-cell one-dose antiproliferative screen; format: cell-based, human; conditions: one dose 10 μM
[29] = test system: M14 (melanoma); assay: NCI 60-cell one-dose antiproliferative screen; format: cell-based, human; conditions: one dose 10 μM
[30] = test system: NCI/ADR-RES (ovarian cancer); assay: NCI 60-cell one-dose antiproliferative screen; format: cell-based, human; conditions: one dose 10 μM
[31] = test system: PC-3 (prostate cancer); assay: NCI 60-cell one-dose antiproliferative screen; format: cell-based, human; conditions: one dose 10 μM
[32] = test system: OVCAR-3 (ovarian cancer); assay: NCI 60-cell one-dose antiproliferative screen; format: cell-based, human; conditions: one dose 10 μM
[33] = test system: HS 578T (breast cancer); assay: NCI 60-cell one-dose antiproliferative screen; format: cell-based, human; conditions: one dose 10 μM
[34] = test system: UACC-62 (melanoma); assay: NCI 60-cell one-dose antiproliferative screen; format: cell-based, human; conditions: one dose 10 μM
[35] = test system: MDA-MB-468 (breast cancer); assay: NCI 60-cell one-dose antiproliferative screen; format: cell-based, human; conditions: one dose 10 μM
[36] = test system: RPMI-8226 (leukemia); assay: NCI 60-cell one-dose antiproliferative screen; format: cell-based, human; conditions: one dose 10 μM
[37] = test system: NCI-H460 (NSC lung cancer); assay: NCI 60-cell one-dose antiproliferative screen; format: cell-based, human; conditions: one dose 10 μM
[38] = test system: OVCAR-4 (ovarian cancer); assay: NCI 60-cell one-dose antiproliferative screen; format: cell-based, human; conditions: one dose 10 μM
[39] = test system: DU-145 (prostate cancer); assay: NCI 60-cell one-dose antiproliferative screen; format: cell-based, human; conditions: one dose 10 μM
[40] = test system: LOX IMIV (melanoma); assay: NCI 60-cell one-dose antiproliferative screen; format: cell-based, human; conditions: one dose 10 μM
[41] = test system: HOP-62 (NSC lung cancer); assay: NCI 60-cell one-dose antiproliferative screen; format: cell-based, human; conditions: one dose 10 μM
[42] = test system: HT29 (colon cancer); assay: NCI 60-cell one-dose antiproliferative screen; format: cell-based, human; conditions: one dose 10 μM
[43] = test system: HCC-2998 (colon cancer); assay: NCI 60-cell one-dose antiproliferative screen; format: cell-based, human; conditions: one dose 10 μM
[44] = test system: OVCAR-8 (ovarian cancer); assay: NCI 60-cell one-dose antiproliferative screen; format: cell-based, human; conditions: one dose 10 μM
[45] = test system: MALME-3M (melanoma); assay: NCI 60-cell one-dose antiproliferative screen; format: cell-based, human; conditions: one dose 10 μM
[46] = test system: SNB-19 (CNS cancer); assay: NCI 60-cell one-dose antiproliferative screen; format: cell-based, human; conditions: one dose 10 μM
[47] = test system: SN12C (renal cancer); assay: NCI 60-cell one-dose antiproliferative screen; format: cell-based, human; conditions: one dose 10 μM
[48] = test system: MDA-MB-435 (melanoma); assay: NCI 60-cell one-dose antiproliferative screen; format: cell-based, human; conditions: one dose 10 μM
[49] = test system: T-47D (breast cancer); assay: NCI 60-cell one-dose antiproliferative screen; format: cell-based, human; conditions: one dose 10 μM
[50] = test system: TK-10 (renal cancer); assay: NCI 60-cell one-dose antiproliferative screen; format: cell-based, human; conditions: one dose 10 μM
[51] = test system: CCRF-CEM (leukemia); assay: NCI 60-cell one-dose antiproliferative screen; format: cell-based, human; conditions: one dose 10 μM
[52] = test system: SK-MEL-28 (melanoma); assay: NCI 60-cell one-dose antiproliferative screen; format: cell-based, human; conditions: one dose 10 μM
[53] = test system: SF-295 (CNS cancer); assay: NCI 60-cell one-dose antiproliferative screen; format: cell-based, human; conditions: one dose 10 μM
[54] = test system: NCI-H226 (NSC lung cancer); assay: NCI 60-cell one-dose antiproliferative screen; format: cell-based, human; conditions: one dose 10 μM

## COc1ccc(-c2nnc3ccc(NN=Cc4ccc(C)cc4)nn23)cc1 [Compound 4f, 3-(4-Methoxyphenyl)-6-(2-(4-methylbenzylidene)hydrazinyl)-[1,2,4]triazolo[4,3-b]pyridazine]
[1]
  GI%: 20.07%
[2]
  GI%: — (— GI% is below 15%)
[3]
  GI%: 49.25%
[4]
  GI%: — (— GI% is below 15%)
[5]
  GI%: 20.16%
[6]
  GI%: 37.84%
[7]
  GI%: 50.02%
[8]
  GI%: 81.11%
[9]
  GI%: 31.89%
[10]
  GI%: — (— GI% is below 15%)
[11]
  GI%: — (— GI% is below 15%)
[12]
  GI%: 40.91%
[13]
  GI%: — (— GI% is below 15%)
[14]
  GI%: — (— GI% is below 15%)
[15]
  GI%: 45.37%
[16]
  inhibition at 10 µM: 34.8%
[17]
  GI%: 55.13%
[18]
  GI%: 38.74%
[19]
  GI%: 34.65%
[20]
  GI%: 43.09%
[21]
  GI%: 31.76%
[22]
  GI%: 66.62%
[23]
  GI%: — (— GI% is below 15%)
[24]
  GI%: 66.50%
[25]
  GI%: 42.84%
[26]
  GI%: 41.02%
[27]
  GI%: — (— GI% is below 15%)
[28]
  GI%: 21.17%
[29]
  GI%: 16.52%
[30]
  GI%: 74.21%
[31]
  GI%: 27.83%
[32]
  GI%: 84.42%
[33]
  GI%: 70.93%
[34]
  GI%: — (— GI% is below 15%)
[35]
  GI%: — (— GI% is below 15%)
[36]
  GI%: — (— GI% is below 15%)
[37]
  GI%: 48.83%
[38]
  GI%: 63.09%
[39]
  GI%: 60.93%
[40]
  GI%: 76.27%
[41]
  GI%: 29.57%
[42]
  GI%: 17.40%
[43]
  GI%: 20.85%
[44]
  GI%: 58.61%
[45]
  GI%: — (— GI% is below 15%)
[46]
  GI%: — (— GI% is below 15%)
[47]
  GI%: 23.07%
[48]
  GI%: 35.32%
[49]
  GI%: 24.01%
[50]
  GI%: 17.28%
[51]
  GI%: — (— GI% is below 15%)
[52]
  GI%: — (— GI% is below 15%)
[53]
  GI%: 43.09%
[54]
  GI%: 45.38%
